For assay [1], the system named is GCGR. The settings on record: antagonist to glucagon; no reference given; cited from earlier work.
Assay [2] has as its system GCGR mutants of Trp295 and Asn298. The assay can be described thus: Whole-cell glucagon binding assay, ECL2 mutants Trp295 and Asn298. The arrangement: species or system human. The settings on record: CHO-K1 cells, 40 pM 125I-glucagon, room temperature, 3 h.

In the case of `CS(=O)(=O)c1cccc(NC(=O)N(Cc2ccc(C(=O)Nc3nn[nH]n3)cc2)c2ccc(C3CCCCC3)cc2)c1` [NNC0640], the mode of antagonism result in assay [1] was “competitive antagonist to glucagon”.

On to “glucagon: 29 amino acid hormonal peptide, glucagon (Supplementary Fig. 1a)”, for which the “effect of mutation of ECL2 residues on ligand binding” value in assay [2] is listed as “strongly affects ligand binding”.
